Marks after values point to notes of the source that are not given here.
How the values were obtained:
[1] = test system: HSV-2 strain 186; assay: Genital herpes infection in the mouse model; format: in vivo, mice; conditions: Table IV, 20 sec before virus inoculation; for Protected Against Disease, Number / Protected Against Infection, Number: 15 inoculated
[2] = test system: vaginal/cervical epithelial and other cells; conditions: in vitro; cited from earlier work

nonoxynol-9 [N-9]
Protected Against Disease, % ([1]; N-9 5% in PBS): 40^d %
Protected Against Infection, % ([1]; N-9 5% in PBS): 13%
Protected Against Disease, Number ([1]; N-9 5% in PBS): 6
Protected Against Infection, Number ([1]; N-9 5% in PBS): 2
Protected Against Disease, % ([1]; N-9 50% in PBS): 100^c %
Protected Against Infection, % ([1]; N-9 50% in PBS): 93^c %
Protected Against Disease, Number ([1]; N-9 50% in PBS): 15
Protected Against Disease, % ([1]; N-9 100% in PBS): 100^c %
Protected Against Infection, % ([1]; N-9 100% in PBS): 93^c %
Protected Against Disease, Number ([1]; N-9 100% in PBS): 15
Protected Against Infection, Number ([1]; N-9 100% in PBS): 14
Protected Against Infection, Number ([1]; N-9 in PBS): 14
lowest concentration injuring cells [2]: about 0.0005%
